Assay [1] deals with cytochrome c oxidase activity of high glucose-treated HepG2 cell. The assay can be described thus: Cytochrome c oxidase activity in high glucose treated HepG2 cell. Format: cell-based, human. Conditions: compound 3 μM, 3 days, high glucose (4.5 g/L) HepG2, mean±SD, n=4. As for the experimental part: (1) Human liver cancer cell-derived cell line HepG2 was passaged in low glucose (1 g/L) Eagle Modified Dulbecco's Medium supplemented with 10% fetal bovine serum. The cells adjusted to 3×10^5/mL using the same medium were plated on a 96 well plate and precultured overnight. The aforementioned medium was changed to high glucose (4.5 g/L) Eagle Modified Dulbecco's Medium supplemented with 5 μg/mL transferrin, compound (a) or compound (l) was added and the cell culture was continued for 3 days. The same experiment was performed without using compound (a) and compound (l) as the control group. […] (3) The DNA content was measured using PicoGreen dsDNA Quantitation Kit (Molecular Probes P-7589), and used as an index of cell number. The cytochrome c oxidase activity was determined using the Cytochrome c oxidase Assay kit (Sigma CYTOC-OX1) modified to fit a 96 well plate protocol. […] The time-course changes in the absorbance were measured by determining the absorbance at 550 nm at a delta soft kinetic mode once in 15 sec for 6 min from immediately after the start of the reaction. The cytochrome c oxidase activity was calculated as an absorbance change rate in 5 min from 1 to 6 min. […]

Another assay has as its system Wistar Fatty rats. Briefly: Evaluation of anti-diabetic action in Wistar Fatty rats (glycosylated hemoglobin). Format: in vivo, rat. Conditions: male Wistar Fatty rats, mean±SD, n=5-6. The protocol:
Lean rats in the same lot as the male Wistar Fatty rats (26 to 27-week-old; TAKEDA RABICS, lot0402) were used. Blood samples were collected from Wistar Fatty rats in the morning under non-fasting, and glycosylated hemoglobin % value (GHB %) and plasma component were measured. GHB % was measured by Tosoh automatic glycohemoglobin analyzer HLC-723 GHbV Alc2.2. The Plasma component was measured by Beckman Synchron system CX5 delta. The rats showing a GHB % value of not less than 7.5% and a high PG value were divided into 2 groups. For one group, a suspension of compound (1), obtained by suspending compound (l) in 0.5% aqueous methylcellulose solution, (dose of compound (l): 10 mg/kg body weight) was orally administered repeatedly once a day for 20 days. For the other group, 0.5% aqueous methylcellulose solution was orally administered in the same manner, and used as the control group. On the day of completion of the administration, the blood samples were collected again, and GHB % was measured. The numerical values in the Table show mean±standard deviation of n=5-6 (n is the number of rats).

For assay [2], the target named is T1, human recombinant ferrochelatase (Homo sapiens, UniProt P22830).
T1 construct: attached to the N terminal of the human FeCh Mature region (55th-423rd amino acid residues); Nus-Tag (N, cleaved yes); His-Tag (N, cleaved yes); made in house; host or cells: Escherichia coli BL21 (DE3)
T1 sequence (P22830 55-423): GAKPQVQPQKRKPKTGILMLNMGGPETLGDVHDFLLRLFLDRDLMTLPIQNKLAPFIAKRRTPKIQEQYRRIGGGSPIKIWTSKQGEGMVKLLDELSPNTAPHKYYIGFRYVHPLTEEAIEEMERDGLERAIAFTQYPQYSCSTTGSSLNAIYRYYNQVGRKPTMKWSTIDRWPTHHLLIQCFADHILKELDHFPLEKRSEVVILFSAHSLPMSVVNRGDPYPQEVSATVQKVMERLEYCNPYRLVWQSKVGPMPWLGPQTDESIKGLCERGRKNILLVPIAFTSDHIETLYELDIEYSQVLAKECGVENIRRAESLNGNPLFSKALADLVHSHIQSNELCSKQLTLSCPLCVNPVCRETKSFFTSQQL
The assay can be described thus: Measurement of ferrochelatase activity (zinc-protoporphyrin IX production, fluorescence). It is filed as biochemical. Conditions: compound 3 μM, mean±SD, n=8, control group 0.377 ± 0.010. The protocol: Using human FeCh gene (Invitrogen) as a template, PCR was performed using the following primer 1 (SEQ ID NO: 3) and primer 2 (SEQ ID NO: 4). Pyrobest DNA polymerase (TAKARA SHUZO CO., LTD.) was used for the PCR, and extension reactions were performed under the conditions of (1) 95° C. 1 min, then (2) 30 cycles of 96° C. 15 sec, 60° C. 30 sec, 72° C. 90 sec, then (3) 72° C. for 7 min. After the reaction, the amplification product was inserted into pCR-Blunt II-TOPO (Invitrogen) and cloned. The obtained plasmid was digested with Bgl II and Xho I to recover inserted fragments. The fragments were inserted into the Bam HI/Xho I site of pET43.1a (Novagen) to give an expression vector pET43.1a-hFeCh encoding a protein with Nus-Tag and His-Tag attached to the N terminal of the human FeCh Mature region (55th-423rd amino acid residues).
The expression vector pET43.1a-hFeCh constructed in the above-mentioned A1 was introduced into Escherichia coli BL21 (DE3) Competent Cell (Stratagene) to give an expression strain. […]
The cells obtained in the above-mentioned A2 were suspended in Blue column Buffer (10 mM Tris-HCl (pH 8.1), 0.5 M NaCl, 10% Glycerol, 1% Triton X-100, 5 mM 2-Mercaptoethanol (2-ME), 250 ml) containing Protease Cocktail (Complete, EDTA-free; Roche). […] As a result of protein quantification (CBB method; Pierce), the total protein amount of about 8 mg of human FeCh was obtained. […]

The subject of a further assay is Crj: CD(SD)IGS rats. The assay can be described thus: Evaluation of hemoglobin increasing action. Conditions: female Crj: CD(SD)IGS rats, 600 mg/kg/day oral, 4 weeks, mean±SD. It is filed as in vivo, rat. As for the experimental part: (1) After acclimation rearing for 1 week, female Crj: CD(SD)IGS rats (5-week-old) were divided into 2 groups (10 rats/group). (2) For one group, a suspension of compound (a), obtained by suspending compound (a) in 0.5% aqueous methylcellulose solution, was orally administered at 10 ml/kg body weight/day (dose of compound (a): 600 mg/kg body weight/day) once a day. For the other group, 0.5% aqueous methylcellulose solution was orally administered at 10 ml/kg body weight/day in the same manner, and used as the control group. (3) After 4-week administration under free-feeding conditions, the rats were fasted for 20 hr, and the whole blood was collected from the abdominal artery into a blood collection vessel (SP-U0501EM, Sekisui Chemical), and the red blood cell count, hematocrit, hemoglobin concentration, and MCH (average red blood cell hemoglobin) of the rat blood were measured. The numerical values in the Table show mean±standard deviation.

The test system of a further assay is ZDF rats. The assay can be described thus: Evaluation of anti-diabetic action in ZDF rat (blood glucose level). Format: in vivo. Conditions: male ZDF rat at 16 weeks of age; mixed diet 0.03% compound from 8 weeks of age (dose 20.9 mg/kg body weight); mean±SD; control group 652.8±23.10. The protocol: Male ZDF rats (5-week-old, Charles River Japan) were reared while allowing free-feeding of both diet and water. As the feed, a standard laboratory diet (MF; Oriental Yeast Co, Tokyo, Japan) and a mixed diet (the aforementioned standard laboratory diet containing 0.03% of compound (a)) were used. After acclimation rearing for 1 week, the body weight and glycated hemoglobin were measured, and the ZDF rats were divided into 2 groups (8 rats/group) such that the measurement values became uniform at 8 weeks of age. For the control group, the aforementioned standard laboratory diet was given, and for the compound (a) administration group, the aforementioned mixed diet was given from 8 weeks of age to 19 weeks of age.
At 16 weeks of age, the food intake in 24 hr was measured. The rats were reared at 4 rats/cage, the total amount of decrease in the diet in a can set to each cage was divided by 4 and taken as the daily food intake per rat. In addition, the dose of compound (a) was calculated from the food intake and the content of compound (a) in the mixed diet.
At 16 weeks of age, moreover, the blood was drawn from the rat tail vein using heparin as an anticoagulant. The blood sample was preserved on ice, and the plasma after centrifugation was preserved at −20° C. until measurement. The blood glucose level was measured by a biochemical automatic analyzer (Beckman Coulter, Shyncron CX5Δ).

For `Cn1ncc(/C=C/C(=O)Nc2ccc(CCc3nnco3)cc2)c1-c1ccc(F)cc1` [compound (l), (2E)-3-[5-(4-fluorophenyl)-1-methyl-1H-pyrazol-4-yl]-N-{4-[2-(1,3,4-oxadiazol-2-yl)ethyl]phenyl}acrylamide], the “Cytochrome c oxidase activity” value in assay [1] (Table 6, control group 0.743 ± 0.043) is recorded as 0.990 ± 0.088 units/(μg DNA. Besides, the “Glycosylated hemoglobin value, after drug administration” value in the assay with Wistar Fatty rats (10 mg/kg oral once a day for 20 days, control group 7.7 ± 0.2) is reported as 6.9 ± 0.4 %. Besides, the “Glycosylated hemoglobin value, amount of change” value with Wistar Fatty rats (10 mg/kg oral once a day for 20 days, control group −0.5 ± 0.2) is on record as −1.3 ± 0.3 %. In the assay on Wistar Fatty rats (baseline before 10 mg/kg oral once a day for 20 days), the “Glycosylated hemoglobin value, before drug administration” value turned out to be 8.2 ± 0.5%. In addition, the ferrochelatase activity in assay [2] was determined as 0.655 ± 0.009 Em 590 nm.

`CCOP(=O)(OCC)OCc1ccc(NC(=O)/C=C/c2cnn(C)c2-c2ccc(F)cc2)cc1` [compound (a), diethyl [4-({(2E)-3-[5-(4-fluorophenyl)-1-methyl-1H-pyrazol-4-yl]prop-2-enoyl}amino)benzyl]phosphate]: the “Cytochrome c oxidase activity” value in assay [1] (Table 5, control group 0.649 ± 0.044) was determined as 0.757 ± 0.029 units/μg DNA. Besides, the hemoglobin in the assay with Crj: CD(SD)IGS rats (control group 15.3 ± 0.4) is 16.1 ± 0.7 g/dL. In addition, in the assay on Crj: CD(SD)IGS rats (control group 19.6 ± 0.4), the “MCH (average red blood cell hemoglobin)” value is 20.7 ± 0.5 pg. In the assay with Crj: CD(SD)IGS rats (control group 42.5 ± 1.1), this compound had a hematocrit of 44.7 ± 1.9 %. Further, the “red blood cell count” value with Crj: CD(SD)IGS rats (control group 777 ± 21) was 779 ± 32 ×10^4/μl. In the assay on ZDF rats, the blood glucose level was 271.7 ± 36.5 mg/dL. In addition, the ferrochelatase activity in assay [2] came out at 0.609 ± 0.008 Em 590 nm.
